In US20210156846A1, “MICROFLUIDIC PLATFORM FOR TARGET AND BIOMARKER DISCOVERY FOR NON-ALCOHOLIC FATTY LIVER DISEASE” (Javelin Biotech, Inc., priority 2019, published 2021):

System: liver-adipose crosstalk MPSs
Assay: Disease severity in NAFLD liver-adipose crosstalk MPS after treatment
Assay type: cell-based, human
Settings: MHM-induced NAFLD liver-adipose crosstalk MPS; no data shown
Protocol: The disease modifying potential of targets is evaluated using one or both of large and small molecules and functional genomics tools, such as CRISPR. For example, large molecules can include ligand antagonists, Humira (adalimumab) blocks, and TNF-α. Healthy and NAFLD liver-adipose MPSs are established previously described. Following disease induction, the liver-adipose MPSs are treated with small molecules (alone and in combination) or CRISPR short guide RNAs (sgRNAs) that modulate the activity or expression of disease-relevant signaling pathways (e.g. CCR2-5, FXR, PPARγ, PPARβ/δ, and PPARγ) as previously described in relation to FIG. 4. The dosing regimen are optimized using the efficacy data generated using the liver and adipose spheroids previously described. The disease-modifying potential of the therapeutic treatment regimens in the liver-adipose crosstalk MPS 120 are determined using phenotypic (e.g., IR, steatosis, steatohepatitis, and fibrosis) and biomarker (apoptosis, hepatokine, adipokine, cytokine) readouts.
In the liver-adipose MPS 120, MHM induces a NAFLD phenotype in the liver (e.g., oxidative stress, steatosis, and fibrosis) and adipose tissue (e.g., steatosis) compared to MPSs cultured in healthy medium. Clinical biomarkers of NAFLD (e.g., AST, ALT, cytokeratin-18) are elevated in diseased systems compared to healthy systems. […]

| SMILES | severity of the steatosis, fibrosis, and insulin resistance |
| --- | --- |
| CSc1ccc(C(=O)/C=C/c2cc(C)c(OC(C)(C)C(=O)O)c(C)c2)cc1 [elafibranor] | reduce the severity |
| CCCCOCCOc1ccc(-c2ccc3c(c2)/C=C(/C(=O)Nc2ccc([S@@+]([O-])Cc4cncn4CCC)cc2)CCCN3CC(C)C)cc1 [cenicriviroc] | reduce the severity |
